{"source": "the supplement of paper PMC10307832", "assay_in_all_cases": "relative viability (nuclei count vs DMSO), 5 days (fraction); higher = more cells survive", "key": {"[1]": {"compound": "O=C(CCCCCCC(=O)Nc1ccccc1)NO [Vorinostat]", "in_short": "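Lung cancer cell lines received five library-drug doses (not always all listed) spaced by √10, pinned on vehicle-anchored 1536-well plates after an overnight stay at 37 °C. Five days later, with no medium change, nuclei were Hoechst-stained, imaged at 4× and counted with MetaXpress. Viability is treated-well nuclei relative to vehicle-well nuclei, as a median across plates. Passing plates had control CV below 25% and at least one doubling.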"}, "[2]": {"compound": "O=C(CCCCCCC(=O)Nc1ccccc1)NO [Vorinostat] + Cc1cc(Nc2cc(N3CCN(C)CC3)nc(Sc3ccc(NC(=O)C4CC4)cc3)n2)n[nH]1 [Tozasertib] (partner 0.1 µM)", "in_short": "(§1)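 Relative viability equals treated-well nuclei counts divided by vehicle-well nuclei counts. Counts came from 4× images of lung cancer cell lines grown in 1536-well plates for 5 days after pin-tool dosing on the day after seeding. Dosing used one drug alone or a fixed anchor-drug dose plus five library-drug doses (not always all listed) in √10 steps, and values are medians of duplicate plates.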"}, "[3]": {"compound": "O=C(CCCCCCC(=O)Nc1ccccc1)NO [Vorinostat] + Nc1nc2[nH]cc(CCc3ccc(C(=O)N[C@@H](CCC(=O)O)C(=O)O)cc3)c2c(=O)[nH]1 [Pemetrexed] (partner 0.2 µM)", "in_short": "as §1"}, "[4]": {"compound": "O=C(CCCCCCC(=O)Nc1ccccc1)NO [Vorinostat] + NC(=O)Nc1cc(-c2cccc(F)c2)sc1C(=O)N[C@H]1CCCNC1 [AZD7762] (partner 0.2 µM)", "in_short": "as §1"}, "[5]": {"compound": "O=C(CCCCCCC(=O)Nc1ccccc1)NO [Vorinostat] + CC(=O)c1c(C)c2cnc(Nc3ccc(N4CCNCC4)cn3)nc2n(C2CCCC2)c1=O [Palbociclib] (partner 0.5 µM)", "in_short": "as §1"}, "[6]": {"compound": "O=C(CCCCCCC(=O)Nc1ccccc1)NO [Vorinostat] + COc1cccc2cc(-c3nc([C@H]4CC[C@H](C(=O)O)CC4)n4ncnc(N)c34)[nH]c12 [OSI-027] (partner 0.5 µM)", "in_short": "as §1"}, "[7]": {"compound": "O=C(CCCCCCC(=O)Nc1ccccc1)NO [Vorinostat] + Nc1ncn([C@H]2C[C@H](O)[C@@H](CO)O2)c(=O)n1 [Decitabine] (partner 2 µM)", "in_short": "as §1"}, "[8]": {"compound": "O=C(CCCCCCC(=O)Nc1ccccc1)NO [Vorinostat] + O=C(c1cc(Cc2n[nH]c(=O)c3ccccc23)ccc1F)N1CCN(C(=O)C2CC2)CC1 [Olaparib] (partner 8 µM)", "in_short": "as §1"}, "[9]": {"compound": "O=C(CCCCCCC(=O)Nc1ccccc1)NO [Vorinostat] + CC(=O)Nc1cccc(-n2c(=O)n(C3CC3)c(=O)c3c(Nc4ccc(I)cc4F)n(C)c(=O)c(C)c32)c1 [Trametinib] (partner 0.02 µM)", "in_short": "as §1"}, "[10]": {"compound": "O=C(CCCCCCC(=O)Nc1ccccc1)NO [Vorinostat] + CC1(C)CCC(c2ccc(Cl)cc2)=C(CN2CCN(c3ccc(C(=O)NS(=O)(=O)c4ccc(N[C@H](CCN5CCOCC5)CSc5ccccc5)c(S(=O)(=O)C(F)(F)F)c4)cc3)CC2)C1 [Navitoclax] (partner 0.5 µM)", "in_short": "as §1"}, "[11]": {"compound": "O=C(CCCCCCC(=O)Nc1ccccc1)NO [Vorinostat] + C[C@@H](Oc1cc(-c2cnn(C3CCNCC3)c2)cnc1N)c1c(Cl)ccc(F)c1Cl [Crizotinib] (partner 1 µM)", "in_short": "as §1"}, "[12]": {"compound": "O=C(CCCCCCC(=O)Nc1ccccc1)NO [Vorinostat] + C[C@]1(O)C[C@@H](c2nc(-c3ccc4ccc(-c5ccccc5)nc4c3)c3c(N)nccn32)C1 [Linsitinib] (partner 1 µM)", "in_short": "as §1"}, "[13]": {"compound": "O=C(CCCCCCC(=O)Nc1ccccc1)NO [Vorinostat] + CS(=O)(=O)CCNCc1ccc(-c2ccc3ncnc(Nc4ccc(OCc5cccc(F)c5)c(Cl)c4)c3c2)o1 [Lapatinib] (partner 2 µM)", "in_short": "as §1"}, "[14]": {"compound": "O=C(CCCCCCC(=O)Nc1ccccc1)NO [Vorinostat] + CS(=O)(=O)N1CCN(Cc2cc3nc(-c4cccc5[nH]ncc45)nc(N4CCOCC4)c3s2)CC1 [Pictilisib] (partner 1 µM)", "in_short": "as §1"}, "[15]": {"compound": "O=C(CCCCCCC(=O)Nc1ccccc1)NO [Vorinostat] + COc1cc2c(Oc3ccc(NC(=O)C4(C(=O)Nc5ccc(F)cc5)CC4)cc3F)ccnc2cc1OCCCN1CCOCC1 [Foretinib] (partner 0.25 µM)", "in_short": "as §1"}, "[16]": {"compound": "O=C(CCCCCCC(=O)Nc1ccccc1)NO [Vorinostat] + Cc1nc(NC(=O)N2CCC[C@H]2C(N)=O)sc1-c1ccnc(C(C)(C)C(F)(F)F)c1 [Alpelisib] (partner 2 µM)", "in_short": "as §1"}, "[17]": {"compound": "O=C(CCCCCCC(=O)Nc1ccccc1)NO [Vorinostat] + CC(C)C[C@H](NC(=O)[C@H](Cc1ccccc1)NC(=O)c1cnccn1)B(O)O [Bortezomib] (partner 0.002 µM)", "in_short": "as §1"}}}
{"cell line": "NCI-H1648", "values": [{"measurement": "relative viability", "setting": "[1]; 0.253 µM", "value": 0.815}, {"measurement": "relative viability", "setting": "[1]; 0.8 µM", "value": 0.725}, {"measurement": "relative viability", "setting": "[1]; 1 µM, anchor plate", "value": 0.596}, {"measurement": "relative viability", "setting": "[1]; 2.53 µM", "value": 0.252}, {"measurement": "relative viability", "setting": "[1]; 8 µM", "value": 0.209}, {"measurement": "relative viability", "setting": "[2]; first compound 0.253 µM", "value": 0.457}, {"measurement": "relative viability", "setting": "[2]; first compound 0.8 µM", "value": 0.319}, {"measurement": "relative viability", "setting": "[2]; first compound 2.53 µM", "value": 0.161}, {"measurement": "relative viability", "setting": "[2]; first compound 8 µM", "value": 0.158}, {"measurement": "relative viability", "setting": "[3]; first compound 0.253 µM", "value": 0.598}, {"measurement": "relative viability", "setting": "[3]; first compound 0.8 µM", "value": 0.595}, {"measurement": "relative viability", "setting": "[3]; first compound 2.53 µM", "value": 0.428}, {"measurement": "relative viability", "setting": "[3]; first compound 8 µM", "value": 0.241}, {"measurement": "relative viability", "setting": "[4]; first compound 0.253 µM", "value": 0.51}, {"measurement": "relative viability", "setting": "[4]; first compound 0.8 µM", "value": 0.496}, {"measurement": "relative viability", "setting": "[4]; first compound 2.53 µM", "value": 0.331}, {"measurement": "relative viability", "setting": "[4]; first compound 8 µM", "value": 0.212}, {"measurement": "relative viability", "setting": "[5]; first compound 0.253 µM", "value": 0.278}, {"measurement": "relative viability", "setting": "[5]; first compound 0.8 µM", "value": 0.239}, {"measurement": "relative viability", "setting": "[5]; first compound 2.53 µM", "value": 0.224}, {"measurement": "relative viability", "setting": "[5]; first compound 8 µM", "value": 0.213}, {"measurement": "relative viability", "setting": "[6]; first compound 0.253 µM", "value": 0.252}, {"measurement": "relative viability", "setting": "[6]; first compound 0.8 µM", "value": 0.267}, {"measurement": "relative viability", "setting": "[6]; first compound 2.53 µM", "value": 0.28}, {"measurement": "relative viability", "setting": "[6]; first compound 8 µM", "value": 0.263}, {"measurement": "relative viability", "setting": "[7]; first compound 0.253 µM", "value": 0.414}, {"measurement": "relative viability", "setting": "[7]; first compound 0.8 µM", "value": 0.473}, {"measurement": "relative viability", "setting": "[7]; first compound 2.53 µM", "value": 0.215}, {"measurement": "relative viability", "setting": "[7]; first compound 8 µM", "value": 0.22}, {"measurement": "relative viability", "setting": "[8]; first compound 0.253 µM", "value": 1.13}, {"measurement": "relative viability", "setting": "[8]; first compound 0.8 µM", "value": 0.674}, {"measurement": "relative viability", "setting": "[8]; first compound 2.53 µM", "value": 0.212}, {"measurement": "relative viability", "setting": "[8]; first compound 8 µM", "value": 0.201}, {"measurement": "relative viability", "setting": "[9]; first compound 0.253 µM", "value": 0.596}, {"measurement": "relative viability", "setting": "[9]; first compound 0.8 µM", "value": 0.494}, {"measurement": "relative viability", "setting": "[9]; first compound 2.53 µM", "value": 0.191}, {"measurement": "relative viability", "setting": "[9]; first compound 8 µM", "value": 0.191}]}
{"cell line": "EBC-1", "values": [{"measurement": "relative viability", "setting": "[1]; 0.253 µM", "value": 0.913}, {"measurement": "relative viability", "setting": "[1]; 0.8 µM", "value": 0.654}, {"measurement": "relative viability", "setting": "[1]; 2.53 µM", "value": 0.222}, {"measurement": "relative viability", "setting": "[1]; 8 µM", "value": 0.0742}, {"measurement": "relative viability", "setting": "[10]; first compound 0.253 µM", "value": 0.376}, {"measurement": "relative viability", "setting": "[10]; first compound 0.8 µM", "value": 0.215}, {"measurement": "relative viability", "setting": "[10]; first compound 2.53 µM", "value": 0.126}, {"measurement": "relative viability", "setting": "[10]; first compound 8 µM", "value": 0.114}, {"measurement": "relative viability", "setting": "[11]; first compound 0.253 µM", "value": 0.207}, {"measurement": "relative viability", "setting": "[11]; first compound 0.8 µM", "value": 0.224}, {"measurement": "relative viability", "setting": "[11]; first compound 2.53 µM", "value": 0.169}, {"measurement": "relative viability", "setting": "[11]; first compound 8 µM", "value": 0.118}, {"measurement": "relative viability", "setting": "[12]; first compound 0.253 µM", "value": 0.838}, {"measurement": "relative viability", "setting": "[12]; first compound 0.8 µM", "value": 0.458}, {"measurement": "relative viability", "setting": "[12]; first compound 2.53 µM", "value": 0.134}, {"measurement": "relative viability", "setting": "[12]; first compound 8 µM", "value": 0.0589}, {"measurement": "relative viability", "setting": "[13]; first compound 0.253 µM", "value": 0.243}, {"measurement": "relative viability", "setting": "[13]; first compound 0.8 µM", "value": 0.209}, {"measurement": "relative viability", "setting": "[13]; first compound 2.53 µM", "value": 0.164}, {"measurement": "relative viability", "setting": "[13]; first compound 8 µM", "value": 0.124}, {"measurement": "relative viability", "setting": "[14]; first compound 0.253 µM", "value": 0.32}, {"measurement": "relative viability", "setting": "[14]; first compound 0.8 µM", "value": 0.203}, {"measurement": "relative viability", "setting": "[14]; first compound 2.53 µM", "value": 0.1}, {"measurement": "relative viability", "setting": "[14]; first compound 8 µM", "value": 0.0715}, {"measurement": "relative viability", "setting": "[15]; first compound 0.253 µM", "value": 0.117}, {"measurement": "relative viability", "setting": "[15]; first compound 0.8 µM", "value": 0.101}, {"measurement": "relative viability", "setting": "[15]; first compound 2.53 µM", "value": 0.0655}, {"measurement": "relative viability", "setting": "[15]; first compound 8 µM", "value": 0.044}, {"measurement": "relative viability", "setting": "[8]; first compound 0.253 µM", "value": 0.681}, {"measurement": "relative viability", "setting": "[8]; first compound 0.8 µM", "value": 0.476}, {"measurement": "relative viability", "setting": "[8]; first compound 2.53 µM", "value": 0.193}, {"measurement": "relative viability", "setting": "[8]; first compound 8 µM", "value": 0.0767}, {"measurement": "relative viability", "setting": "[16]; first compound 0.253 µM", "value": 0.675}, {"measurement": "relative viability", "setting": "[16]; first compound 0.8 µM", "value": 0.65}, {"measurement": "relative viability", "setting": "[16]; first compound 2.53 µM", "value": 0.143}, {"measurement": "relative viability", "setting": "[16]; first compound 8 µM", "value": 0.0927}, {"measurement": "relative viability", "setting": "[17]; first compound 0.253 µM", "value": 0.376}, {"measurement": "relative viability", "setting": "[17]; first compound 0.8 µM", "value": 0.325}, {"measurement": "relative viability", "setting": "[17]; first compound 2.53 µM", "value": 0.124}, {"measurement": "relative viability", "setting": "[17]; first compound 8 µM", "value": 0.0971}]}
